Laboratory results as given in patent US11286228B2, “Stilbene derivative and method for preparing same” (Ozchela Inc., priority 2016, dated 2022).
Read-outs that look alike come from different tables or passages of the source.

Assays:
cyclophilin = experiment: Cis-trans isomerase inhibitory activity (chymotrypsin-coupled Suc-AAPF-pNA cleavage, absorbance 390 nm); type: biochemical
In short: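 Cyclophilin isomerase activity coupled to chymotrypsin cleavage of Suc-AAPF-pNA: chymotrypsin cuts only the trans peptide, so isomerase-driven cis-to-trans conversion increases cleavage within a fixed period. Released product read by absorbance at 390 nm with compound present alongside cyclophilin.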

hepatitis C virus = experiment: Antiviral activity in HCV replicon cells (Renilla luciferase); type: cell-based; details: HCV replicon cells
In short: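 Replicon cells stably carrying the HCV genome, pre-cultured 24 h at 37 °C, treated with compound for 72 h, then lysed on ice. Renilla luciferase luminescence used as a measure of HCV genome level, expressed relative to DMSO-treated cells, from which EC50 was derived.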

[1] = system: mitochondria obtained from hepatocytes; experiment: Inhibitory activity on calcium-induced mitochondrial swelling (absorbance 520 nm)
In short: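 Mitochondria isolated from hepatocytes by Dounce disruption, 700×g clearing and 12,000×g pelleting. Swelling induced with calcium and followed as absorbance at 520 nm; activity expressed as IC50.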

[2] = Cytotoxicity, MTT test in HCV replicon cells; type: cell-based
Procedure: The cytotoxicity of the stilbene derivatives was measured. Replicon cells that stably replicate a hepatitis C virus genome were attached to a 96-well plate and cultured in a CO2 incubator at 37° C. for 24 hr. The replicon cells cultured for one day were washed with a phosphate buffered saline (PBS) solution, treated with the compounds of the present invention, and then cultured for 72 hr. Thereafter, through the MTT [3-(4,5-dimethylthiazol-2-yl)-2,5-diphenyltetrazolium bromide] cytotoxicity test, CC50 values of the compounds of the present invention were measured. The CC50 values of the compounds of the present invention were 200 μM or more.

[3] = cyclophilin, chymotrypsin, Suc-AAPF-pNA, read-out: Test Example 1: cis-trans isomerase inhibitory activity (IC50)
[4] = Hepatitis C virus, 72 hr, Renilla luciferase, relative to DMSO, read-out: Test Example 3: antiviral activity (EC50)
[5] = Hepatocyte, calcium-induced swelling of extracted mitochondria, read-out: Test Example 4: inhibiting mitochondrial swelling (IC50)
[6] = read-out: Test Example 1: cis-trans isomerase inhibitory activity (IC50) group
[7] = Hepatitis C virus, read-out: Test Example 3: antiviral activity (EC50) group
[8] = Hepatocyte, read-out: Test Example 4: activity on inhibiting mitochondrial swelling (IC50) group

Row | Compound | IC50 (cyclophilin; [3]) | EC50 (hepatitis C virus; [4]) | IC50 [1, 5] | CC50 at 72 h [2] | IC50 (cyclophilin; [6]) | EC50 (hepatitis C virus; [7]) | IC50 [1, 8] | EC50 (hepatitis C virus; read-out: Test Example 3: antiviral activity (EC50) group) | IC50 ([1]; read-out: Test Example 4: activity on inhibiting mitochondrial swelling (IC50) group)
1 | CCCCOC(=O)c1ccccc1C=Cc1ccc(CC(C)(C)C)cc1 [Compound 64] | ≤ 0.02 µM | < 0.5 µM | < 5 µM | 320 µM |  |  |  |  | 
2 | CCCCOC(=O)c1c(C)cccc1C=Cc1ccc(CC(C)(C)C)cc1 [Compound 65] | 0.02 to 0.2 µM | 0.5 to 5 µM | 5 to 50 µM | 284 µM |  |  |  |  | 
3 | CCCCOC(=O)c1c(C=Cc2ccc(CC(C)(C)C)cc2)cccc1CC [Compound 66] | 0.02 to 0.2 µM | 0.5 to 5 µM | 5 to 50 µM | 245 µM |  |  |  |  | 
4 | CCCCOC(=O)c1cccc(C(=O)OCCCC)c1C=Cc1ccc(CC(C)(C)C)cc1 [Compound 149] |  |  |  |  | 0.02 to 0.2 µM | 0.5 to 5 µM | 5 to 50 µM |  | 
5 | CC(C)(C)Cc1ccc(C=Cc2c(O)cccc2C(=O)O)cc1 [Compound 150] |  |  |  |  | ≤ 0.02 µM | < 0.5 µM | < 5 µM |  | 
6 | CC(C)(C)Cc1ccc(C=Cc2c(N)cccc2C(=O)O)cc1 [Compound 151] |  |  |  |  | ≤ 0.02 µM | < 0.5 µM | < 5 µM |  | 
7 | Cc1cccc(C(=O)O)c1C=Cc1ccc(CC(C)(C)C)cc1 [Compound 152] |  |  |  |  | ≤ 0.02 µM | < 0.5 µM | < 5 µM |  | 
8 | CC(C)(C)Cc1ccc(C=Cc2cc(O)ccc2C(=O)O)cc1 [Compound 153] |  |  |  |  | 0.02 to 0.2 µM |  |  | 0.5 to 5 µM | 5 to 50 µM
9 | CC(C)(C)Cc1ccc(C=Cc2cc(N)ccc2C(=O)O)cc1 [Compound 154] |  |  |  |  | 0.02 to 0.2 µM | 0.5 to 5 µM | 5 to 50 µM |  | 
10 | Cc1ccc(C(=O)O)c(C=Cc2ccc(CC(C)(C)C)cc2)c1 [Compound 155] |  |  |  |  | 0.02 to 0.2 µM | 0.5 to 5 µM | 5 to 50 µM |  | 
